Laboratory results from paper PMC7456637, “Pharmacokinetic characterization of fluorocoxib D, a cyclooxygenase-2-targeted optical imaging agent for detection of cancer” (Journal of Biomedical Optics, 2020).
Several values for one entry are separate records, joined by “and”; a condition that tells them apart may be missing. Identical values can stand only once. Entries after “also recorded” stand apart in the source; their conditions may differ.

Assays:
[1] = Pharmacokinetics of fluorocoxib D in research dogs, plasma HPLC; assay type: in vivo, dog
Method: (§1) The animal studies were performed in the accordance with the University of Tennessee Institutional Animal Care and Use Committee (UT IACUC)-approved protocols and in an accordance with NIH guidelines. Individually housed research healthy female beagle dogs (Covance Research Product) with weights of 6.7 to 10.3 kg were used to assess the safety and pharmacokinetic parameters of fluorocoxib D administrated a dose of 1 mg/kg over 20 min intravenously (i.v.).
To determine the pharmacokinetic parameters of fluorocoxib D ( 1 mg/kg , i.v.) in dogs, blood (2 to 3 ml) was collected from the jugular vein into EDTA-treated tubes at 0, 0.5, 1, 2, 4, 8, and 24 h after compound administration. The blood was centrifuged within 20 min of sample collection. Plasma was removed and stored at −80°C until further HPLC analysis.
Levels of fluorocoxib D were determined in collected canine plasma samples using HPLC at Vanderbilt University (JU). The frozen samples were thawed and extracted with acetonitrile. The organic layer was collected, dried, and reconstituted in methanol and water. The unknown samples were quantitated against a 5-point standard curve, which was prepared by mixing known quantities of fluorocoxib D with commercial canine plasma (Sigma-Aldrich) and subjecting the resulting samples to liquid–liquid extraction and HPLC. Samples were analyzed using a reverse-phase column (C18, 5×0.2 cm , Phenomenex) with gradient elution. The mobile phase component A was water, and B was acetonitrile, each containing 0.1% acetic acid. The gradient was 50% B to 90% B over 5 min, followed by a brief hold and return to initial conditions. The flow rate was 0.3 ml/min .
The pharmacokinetic parameters for fluorocoxib D were estimated from the plasma concentration-time data by a nonlinear mixed effects approach, as implemented with Monolix 4.1.2 (Lixoft S.A.S., Orsay, France). This approach allowed analyzing data from all animals at the same time and was ideal for relatively sparse datasets like the one used in this study. The plasma clearance (Cl), representing the overall ability of the body to eliminate fluorocoxib D, was determined by scaling its elimination rate (amount per time) by the corresponding plasma concentration level. The volume of distribution (Vd) was defined as the ratio of the total amount of fluorocoxib D in the body to the blood plasma concentration. The Cl and Vd were estimated directly from the study population data. The peak concentration in plasma ( Cmax ) and the following pharmacokinetic parameters were obtained by averaging the corresponding post-hoc Bayesian estimates. The individual partial areas under the curve between times 0 and 8 h ( AUC0−8 ) and the AUC0−∞ with extrapolation to infinity were calculated using the log-linear trapezoidal rule, as implemented with WinNonlin 5.1 (Pharsight, Mountain View, California). The mean residence time (MRT) value was determined as the ratio of the area under the first moment curve over AUC0−∞ . The elimination rate constant was determined as the slope obtained by linear regression of the terminal log-linear portion of the concentration versus time curve, and the elimination half-life ( t1/2 ) was then calculated. The plasma concentration graphs were generated using calculated averaged plasma concentrations of fluorocoxib D from six dogs after 1 mg/kg i.v. of fluorocoxib D administration performed over 20 min.

[2] = design: method as in earlier work; conditions: cited from earlier work
COX2 = conditions: cited from earlier work
[3] = Pilot safety study: complete blood count (CBC); assay type: in vivo, dog
Method: as §1
(§2) For single dose safety evaluation studies, we administrated fluorocoxib D at 1 mg/kg , i.v. using a preplaced cephalic or saphenous vein catheter over 20 min to six healthy research dogs following protocol as described previously.[38] Briefly, physical examinations for signs of potential drug toxicity were performed before, during, and daily for 3 days after fluorocoxib D administration. Physical assessment included auscultation of heart and lungs, abdominal palpation, body temperature, appetite, attitude, activity levels monitoring, and other health-related events. Hypersensitivity was evaluated by direct observation of each dog during treatment for clinical signs of an allergic reaction (facial swelling, flushing, urticaria, dyspnea, scratching, and changes of heart rates). […] Laboratory evaluations of blood and urine were carried out before and 3 days after fluorocoxib D administration to monitor signs of toxicity. Blood (up to 3 ml) was collected into ethylenediaminetetraacetic acid (EDTA) and heparin-treated tubes, and urine (up to 5 ml) was collected by cystocentesis or from the floor of the runs. The laboratory evaluation consisted of a complete blood count (CBC), serum chemistry profile, and complete urinalysis. The CBC evaluated total white blood cells (WBC) and hematocrit (HCT), in addition to absolute numbers of neutrophils, lymphocytes, monocytes, eosinophils, and platelets. The plasma chemistry profile evaluated blood urea nitrogen (BUN), creatinine, proteins (albumin, globulins, and total proteins), alanine aminotransferase (ALT), total bilirubin, glucose, and electrolytes. The complete urinalysis evaluated urine proteins, glucose, and ketones; a sediment examination and urine-specific gravity were validated as well for any possible signs of renal toxicity of fluorocoxib D. All laboratory tests were carried out at the Veterinary Medical Center of the University of Tennessee in Knoxville.

[4] = Pilot safety study: serum chemistry profile; assay type: in vivo, dog; conditions: 3 days after single dose 1 mg/kg i.v.
Method: as §1, §2

[5] = system: COX-2-expressing human 5637 cancer cells; test: Fluorocoxib D uptake by human 5637 cancer cells (fluorescence microscopy); assay type: cell-based; conditions: 50 nM, 30 min, COX-2-positive 5637 cells
Method: Human 5637 cells were seeded on four-chamber slides (Nalge Nunc, Rochester, New York) and grown until reached 70% to 80% confluence. […] The nuclei of cells were stained with DAPI for 10 min, and slides were mounted using an aqueous mounting medium. Images of cells were captured by a Leica DMi8 fluorescent microscope with Hamamatsu Orca Flash 4.0LT Digital CMOS Camera (Leica Microsystems Inc., Chicago, Illinois) using Leica Application Suite X software (LASX, Leica).

[6] = female, beagle, dog, plasma, iv, 1 mg/kg i.v., six research dogs, mean ± S.D.

## COc1ccc2c(c1)c(CC(=O)NCCCCNC(=O)c1ccc(C3=c4cc5c6c(c4Oc4c3cc3c7c4CCCN7CCC3)CCC[N+]=6CCC5)cc1)c(C)n2C(=O)c1ccc(Cl)cc1 [Fluorocoxib D, N -[(rhodamin-X-yl)but-4-yl]-2-[1-(4-chlorobenzoyl)-5-methoxy-2-methyl-1H-indol-3-yl]acetamide]
[1]; 1 mg/kg i.v. over 20 min, dogs, HPLC
  Peak concentration in plasma: 114.8 ± 50.5 ng/mL
[1]; 1 mg/kg i.v., dogs, HPLC
  Detection in plasma after 4 h following administration: No fluorocoxib D was detected; also recorded: No detectable levels
[1]; female, beagle, dog, plasma, iv, 1 mg/kg i.v. over 20 min, dogs, read-out: Time of peak plasma concentration after administration
  Tmax: 30 min
[1]; female, beagle, dog, plasma, iv, 1 mg/kg i.v. over 20 min, six research dogs, mean ± S.D.
  Cmax: 110 ± 50 ng/mL
[1]; [6]
  AUC(0-inf): 150 ± 50 ng·h/mL
  MRT: 87.6 ± 25.2 min
[1]; female, beagle, dog, plasma, iv, 1 mg/kg i.v., six research dogs, mean ± S.D., read-out: AUC0-8
  AUC(0-t): 110 ± 40 ng·h/mL
[1]; female, beagle, dog, plasma, iv, 1 mg/kg i.v., six research dogs, mean ± S.D., read-out: Cl (clearance) (converted)
  clearance: 123 mL/min/kg
[1]; female, beagle, dog, plasma, iv, 1 mg/kg i.v., six research dogs, mean ± S.D., read-out: Vdarea (volume of distribution)
  Vd: 9.97 ± 4.76 L/kg
[1]; female, beagle, dog, plasma, iv, 1 mg/kg i.v., six research dogs, mean ± S.D., read-out: t1/2 (terminal/elimination half-life) (converted)
  half-life: 54.6 ± 17.4 min
[2]
  Water solubility compared to fluorocoxib A: improved water solubility
COX2
  IC50: 230 nM
COX2; ratio of IC50 values
  Ratio (COX1/COX2): 17.4
[3]; 3 days after single dose 1 mg/kg i.v., dog #3, ADQ = adequate
  PLT EST (platelet estimate), After: ADQ
[3]; 3 days after single dose 1 mg/kg i.v., dog #3, reference range 147 to 423
  PLT CNT (platelets counts), After: 241000 µL⁻¹
[3]; 3 days after single dose 1 mg/kg i.v., dog #6, reference range 0 to 0.3
  Abs BAN (absolute band neutrophils), After: 0 µL⁻¹
[3]; 3 days after single dose 1 mg/kg i.v., individual dogs #1-#6, reference range 0 to 0.85, 1 mg/kg
  Abs EOS (absolute eosinophils), After: 240 µL⁻¹ and 360 µL⁻¹ and 140 µL⁻¹ and 200 µL⁻¹ and 180 µL⁻¹ and 170 µL⁻¹
[3]; 3 days after single dose 1 mg/kg i.v., individual dogs #1-#6, reference range 0.165 to 0.85, 1 mg/kg
  Abs MON (absolute monocytes), After: 230 µL⁻¹ and 300 µL⁻¹ and 240 µL⁻¹ and 490 µL⁻¹ and 380 µL⁻¹ and 620 µL⁻¹
[3]; 3 days after single dose 1 mg/kg i.v., individual dogs #1-#6, reference range 1.1 to 4.6, 1 mg/kg
  Abs LYM (absolute lymphocytes), After: 1610 µL⁻¹ and 2050 µL⁻¹ and 2220 µL⁻¹ and 1880 µL⁻¹ and 2300 µL⁻¹
[3]; 3 days after single dose 1 mg/kg i.v., individual dogs #1-#6, reference range 2.65 to 9.8, 1 mg/kg
  Abs SEG (absolute segmented neutrophils), After: 3.22 ×10^3/μl and 2.98 ×10^3/μl and 4 ×10^3/μl and 4.72 ×10^3/μl and 5.07 ×10^3/μl and 2.4 L ×10^3/μl
[3]; 3 days after single dose 1 mg/kg i.v., individual dogs #1-#6, reference range 5.1 to 14, 1 mg/kg
  WBC (white blood cells), After: 5.3 ×10^3/μl (2×) and 5.7 ×10^3/μl and 6.6 ×10^3/μl and 7.3 ×10^3/μl and 7.8 ×10^3/μl
[3]; 3 days after single dose 1 mg/kg i.v., individual dogs #1-#6, reference range 41 to 60, 1 mg/kg
  HCT (hematocrit), After: 45.2% and 47.2% (2×) and 45.6% and 47% and 48.1%
[3]; dog #6, remained afebrile and clinically normal, cause uncertain
  Neutrophil finding 3 days after administration: mild neutropenia
[4]; dogs #1, #3, #6, reference range 0.1 to 0.6
  TOT BILI (total bilirubin), After: 0.1 mg/dL
[4]; individual dogs #1-#6, reference range 0.3 to 1.1, 1 mg/kg
  CREATI (creatinine), After: 0.8 mg/dL (3×) and 0.6 mg/dL (3×)
[4]; individual dogs #1-#6, reference range 0.65 to 0.98, 1 mg/kg
  MAG (magnesium), After: 0.7 mmol/L (4×) and 0.8 mmol/L (2×)
[4]; individual dogs #1-#6, reference range 1.9 to 3.1, 1 mg/kg
  GLOB (globulin), After: 2.3 g/dL (2×) and 2 g/dL (2×) and 2.6 g/dL and 2.1 g/dL
[4]; individual dogs #1-#6, reference range 2.5 to 5.9, 1 mg/kg
  PHOS (phosphorus), After: 3.5 mg/dL and 4.3 mg/dL and 3.3 mg/dL and 3.9 mg/dL and 3.4 mg/dL and 3.6 mg/dL
[4]; individual dogs #1-#6, reference range 2.8 to 4.7, 1 mg/kg
  POTAS (potassium), After: 3.9 mEq/L and 4.2 mEq/L and 3.7 mEq/L (2×) and 3.5 mEq/L and 3.8 mEq/L
[4]; individual dogs #1-#6, reference range 3.2 to 4.3, 1 mg/kg
  ALBUM (albumin), After: 3.1 L g/dL and 3.4 g/dL (2×) and 3 L g/dL and 3.5 g/dL and 3.3 g/dL
[4]; individual dogs #1-#6, reference range 5.4 to 6.8, 1 mg/kg
  TOT. PROT (total proteins), After: 5.4 g/dL (2×) and 5.7 g/dL and 5.6 g/dL (2×) and 5.2 L g/dL
[4]; individual dogs #1-#6, reference range 7 to 37, 1 mg/kg
  BUN (blood urea nitrogen), After: 12 mg/dL and 17 mg/dL (2×) and 14 mg/dL and 16 mg/dL and 19 mg/dL
[4]; individual dogs #1-#6, reference range 10 to 12, 1 mg/kg
  CAL (calcium), After: 9.5 L mg/dL and 10 mg/dL and 9.9 L mg/dL and 9.7 L mg/dL and 10.3 mg/dL and 9.4 L mg/dL
[4]; individual dogs #1-#6, reference range 18 to 100, 1 mg/kg
  ALT (alanine aminotransferase), After: 26 U/L (2×) and 23 U/L and 22 U/L (2×) and 25 U/L
[4]; individual dogs #1-#6, reference range 82 to 132, 1 mg/kg
  GLUCO (glucose), After: 94 mg/dL and 103 mg/dL and 100 mg/dL and 91 mg/dL and 105 mg/dL and 110 mg/dL
[4]; individual dogs #1-#6, reference range 112 to 119, 1 mg/kg
  CHLOR (chlorine), After: 111 L mEq/L and 114 mEq/L (2×) and 113 mEq/L and 112 mEq/L and 116 mEq/L
[4]; individual dogs #1-#6, reference range 141 to 147, 1 mg/kg
  SOD (sodium), After: 144 mEq/L and 146 mEq/L (2×) and 147 mEq/L (2×) and 148 H mEq/L
[5]
  Uptake of fluorocoxib D by 5637 cells: Selective uptake
